Results on six molecules are retold here after patent publication US4148795A, “Dithiocarbamate ester bactericides and fungicides” (American Cyanamid Company, priority 1976, dated 1979).

Several values for one entry are separate records, joined by “and”; a condition that tells them apart may be missing. Identical values can stand only once. Like-named read-outs stand apart in the source and are kept apart here.

Experiment [1] has as its system Colletotrichum lagenarium. Conditions: in vivo. Note: key: 5: clean, no disease; 4: trace of disease; 3: slight disease; 2: moderate disease; 1: severe disease; 0: like controls.
The next experiment relates to Phytophthora infestans. The class given is in vivo. More on the design: scale not given here. The conditions noted are these: Tomato Late Blight, five days.
The test system of a further experiment is Piricularia oryzae. The class given is in vivo. More on the design: scale not given here. Conditions: Rice Blast, five days.
Another experiment has as its system Venturia inaequalis. Conditions: in vivo. Note: key: 5: clean, no disease; 4: trace of disease; 3: slight disease; 2: moderate disease; 1: severe disease; 0: like controls.
Experiment [2] concerns Aspergillus niger. As to the kind of experiment: Spore germination inhibition. The class given is cell-based. Conditions: 24 hours. In a few lines: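 Test compound is suspended in water at 100, 10 or 1 ppm. and dispensed into one dram "opticlear" vials. Each vial receives one drop of a spore suspension taken from seven-day Aspergillus niger cultures grown on potato-dextrose agar. Capped vials rotate on a tumbler for 24 hours, then are inspected for inhibition of mycelial growth.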

Experiment [3] deals with Monilinia fructicola. As to the kind of experiment: Spore germination inhibition. The class given is cell-based. The conditions noted are these: for inhibition at 1 ppm / inhibition at 10 ppm: 24 hours; for inhibition at 100 ppm: 24 h, read-out: % Inhibition of Spore Germination. In short, it runs like this: (§1)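 Test compounds were suspended in water at 100, 10 or 1 ppm and inoculated with spore suspensions from 7-day (A. niger) or 14-day potato-dextrose agar cultures. Vials were tumbled for 24 hours and then examined for inhibition of mycelial growth.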

The subject of experiment [4] is Stemphylium sarcinaeforme. As to the kind of experiment: Spore germination inhibition. The class given is cell-based. The conditions noted are these: Stemphylium sarciniforme; for inhibition at 100 ppm: 24 h, read-out: % Inhibition of Spore Germination; for inhibition at 1 ppm / inhibition at 10 ppm: 24 hours. In a few lines:
as §1

In the next experiment the test system is Aerobacter aerogenes. The class given is cell-based. Conditions: 100 ppm; subcultures 72 hours at 37° C. Note: key: 0: No Effect; 9: Kill of Bacteria; 5: Stasis, but not Kill of all Bacteria.
The test system of the next experiment is Staphylococcus aureus. The experiment is classed as cell-based. The conditions noted are these: 100 ppm; subcultures 72 hours at 37° C. Note: key: 0: No Effect; 9: Kill of Bacteria; 5: Stasis, but not Kill of all Bacteria.
A further experiment deals with Xanthomonas vesicatoria. The class given is cell-based. The conditions noted are these: 100 ppm; subcultures 72 hours at 37° C.
Experiment [5] concerns Aspergillus niger. Put plainly: Agar dilution plate. Conditions: An; 100 ppm, 72 hours at 23° C. The class given is cell-based. In short, it runs like this:
(§2)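 Compounds incorporated at about 100 ppm into Sabouraud's dextrose agar, which was inoculated with the test fungus and incubated about 72 hours at 23° C. Growth then scored on a 0 to 5 scale, 0 meaning no control and 5 meaning 100% effectiveness; test repeated twice.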
A general note: Agar dilution tests growth on a series of plates holding different concentrations.

The subject of a further experiment is Fusarium lycopersici. As to the kind of experiment: Agar dilution plate. The class given is cell-based. The conditions noted are these: Fl; 100 ppm, 72 hours at 23° C. In short, it runs like this: as §2
The test system of experiment [6] is Monilinia fructicola. As to the kind of experiment: Agar dilution plate. The class given is cell-based. Conditions: Mf; 100 ppm, 72 hours at 23° C. In short, it runs like this:
as §2

The subject of the next experiment is Pythium de Baryanum. Put plainly: Agar dilution plate. The experiment is classed as cell-based. The conditions noted are these: Pd; 100 ppm, 72 hours at 23° C. In short, it runs like this: as §2
The test system of another experiment is Rhizoctonia solani. As to the kind of experiment: Agar dilution plate. The experiment is classed as cell-based. The conditions noted are these: Rs; 100 ppm, 72 hours at 23° C. In a few lines: as §2
The test system of experiment [7] is Stemphylium sarcinaeforme. As to the kind of experiment: Agar dilution plate. The experiment is classed as cell-based. Conditions: Ss; 100 ppm, 72 hours at 23° C. In short, it runs like this:
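Compound incorporated into Sabouraud's dextrose agar at about 100 ppm, inoculated with Stemphylium sarcinaeforme and incubated about 72 hours at 23 °C. Growth scored 0 (no control) or 5 (100% effectiveness), test run in repeat.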

A further experiment concerns Pseudomonas solaracaerum. The experiment is classed as cell-based. The conditions noted are these: 100 ppm, 72 hours at 23° C. Note: key: 0: no control; 5: 100% effectiveness of the test compound against the specified organism.
Experiment [8] concerns Collectotrichum lagenarium. Put plainly: Agar dilution plate. Conditions: Cl; 100 ppm, 72 hours at 23° C. The class given is cell-based. In short, it runs like this: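 Compounds were incorporated at about 100 ppm in Sabouraud's dextrose agar, inoculated, and incubated about 72 h at 23 °C. Growth was scored 0 (no control) or 5 (100% effectiveness), and the test was repeated twice.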

For the next experiment, the system named is Verticillium albo-atrum. Put plainly: Agar dilution plate. The class given is cell-based. The conditions noted are these: Va; 100 ppm, 72 hours at 23° C. In short, it runs like this:
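Compounds incorporated at about 100 ppm into Sabouraud's dextrose agar, then inoculated with the fungus and incubated about 72 hours at 23° C. Growth scored as 0 (no control) or 5 (100% effectiveness); test repeated twice.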
Throughout, for Antibacterial Activity rating: key: 0: No Effect; 9: Kill of Bacteria; 5: Stasis, but not Kill of all Bacteria.

On to `O=[N+]([O-])C(CSC(=S)N1CCCCC1)CSC(=S)N1CCCCC1` [Example 3, 2-Nitrotrimethylene 1-Piperidinecarbodithioate], for which the disease control index was found to be 4 in experiment [1]; 4 in the experiment on Phytophthora infestans (150 ppm); 4 in the experiment with Phytophthora infestans (300 ppm); 5 with Piricularia oryzae (150 ppm); 5 in the experiment on Piricularia oryzae (300 ppm).
In the case of `O=[N+]([O-])CC(SC(=S)N1CCCCC1)c1ccccc1` (stereo not drawn) [Example 16, α-(Nitromethyl)benzyl 1-Piperidinecarbodithioate], the disease control index (in experiment [1]; in the experiment with Piricularia oryzae (150 ppm); with Piricularia oryzae (300 ppm); with Venturia inaequalis) was 5 throughout.
As a reminder, the inhibition is the share of the control response that was lost under treatment. In the case of `CN(C)C(=S)SC(C[N+](=O)[O-])c1ccc(Br)cc1` (stereo not drawn) [Example 30, p-Bromo-α-(nitromethyl)benzyl Dimethyldithiocarbamate], the inhibition at 1 ppm in the experiment with Aspergillus niger [2] was 0%; with Monilinia fructicola [3] it was 100%; in experiment [4], 0%. Also, the inhibition at 10 ppm (with Aspergillus niger [2]; in the experiment on Monilinia fructicola [3]; in [4]) was 100% throughout. The inhibition at 100 ppm (in the experiment on Aspergillus niger [2]; in the experiment with Monilinia fructicola [3]; in experiment [4]) was 100% throughout. Besides, the “Antibacterial Activity rating” value in the experiment on Aerobacter aerogenes is recorded as 0; in the experiment on Staphylococcus aureus, 5; in the experiment on Xanthomonas vesicatoria, 0. Also, the “Agar Dilution Plate rating” value with Aspergillus niger [5] is reported as 0; with Fusarium lycopersici it was 0; in the experiment with Monilinia fructicola [6], 5 (100% effectiveness of the test compound against the specified organism); with Pythium de Baryanum it was 5 (100% effectiveness of the test compound against the specified organism); with Rhizoctonia solani, 5 (100% effectiveness of the test compound against the specified organism); in experiment [7], 0. The “Agar Dilution Plate rating” value with Pseudomonas solaracaerum is recorded as 0; in experiment [8] it was 5 (100% effectiveness of the test compound against the specified organism); in the experiment on Verticillium albo-atrum, 0. The disease control index is listed as 2 in the experiment with Phytophthora infestans (150 ppm); 3 in the experiment on Phytophthora infestans (300 ppm); 3 in the experiment on Phytophthora infestans (600 ppm); 4 in the experiment with Phytophthora infestans (1200 ppm); 5 with Piricularia oryzae (150 ppm); 5 in the experiment with Piricularia oryzae (300 ppm). Further, the disease control index in the experiment with Piricularia oryzae (600 ppm), with Piricularia oryzae (1200 ppm) and in the experiment with Venturia inaequalis was 5 throughout.
Regarding `CN(C)C(=S)SC(C[N+](=O)[O-])c1cccs1` (stereo not drawn) [Example 33, α-(Nitromethyl)-2-thenyl Dimethyldithiocarbamate], the inhibition at 1 ppm was 0% in the experiment on Aspergillus niger [2], 100% in the experiment on Monilinia fructicola [3] and 100% in experiment [4]. Besides, the inhibition at 10 ppm (in the experiment on Aspergillus niger [2]; in the experiment on Monilinia fructicola [3]; in experiment [4]) was 100% each time. Further, the inhibition at 100 ppm (in the experiment on Aspergillus niger [2]; in the experiment on Monilinia fructicola [3]; in experiment [4]) was 100% throughout. Besides, the “Antibacterial Activity rating” value turned out to be 0 in the experiment with Aerobacter aerogenes, 5 with Staphylococcus aureus and 0 in the experiment on Xanthomonas vesicatoria. Moreover, the “Agar Dilution Plate rating” value is 0 in the experiment on Aspergillus niger [5]; 0 with Fusarium lycopersici; 5 (100% effectiveness of the test compound against the specified organism) with Monilinia fructicola [6]; 0 in the experiment with Pythium de Baryanum; 0 in the experiment with Rhizoctonia solani; 5 (100% effectiveness of the test compound against the specified organism) in experiment [7]. Moreover, the “Agar Dilution Plate rating” value in the experiment on Pseudomonas solaracaerum is listed as 0; in experiment [8], 5 (100% effectiveness of the test compound against the specified organism); in the experiment with Verticillium albo-atrum, 0. Moreover, the disease control index with Phytophthora infestans (150 ppm), in the experiment on Phytophthora infestans (300 ppm), in the experiment on Piricularia oryzae (150 ppm), in the experiment with Piricularia oryzae (300 ppm) and in the experiment on Venturia inaequalis was 5 each time.
On to `O=[N+]([O-])CC(SC(=S)N1CCCC1)c1ccccc1` (stereo not drawn) [Example 15, α-(Nitromethyl)benzyl 1-pyrrolidinecarbodithioate], for which the disease control index came to 5 in experiment [1], 4 in the experiment with Piricularia oryzae (150 ppm) and 4 in the experiment with Piricularia oryzae (300 ppm).
For `CN(C)C(=S)SC(C[N+](=O)[O-])c1ccccc1Cl` (stereo not drawn) [Example 27, o-Chloro-α-(nitromethyl)benzyl Dimethyldithiocarbamate], the figures for the inhibition at 1 ppm (in the experiment on Aspergillus niger [2]; with Monilinia fructicola [3]; in experiment [4]) were 0%, 0% and 100%, respectively. Moreover, the inhibition at 10 ppm (with Aspergillus niger [2]; in the experiment on Monilinia fructicola [3]; in experiment [4]) was 100% each time. The inhibition at 100 ppm (in the experiment with Aspergillus niger [2]; in the experiment on Monilinia fructicola [3]; in [4]) was 100% throughout. Besides, the figures for the “Antibacterial Activity rating” value in the experiment with Aerobacter aerogenes, in the experiment on Staphylococcus aureus and in the experiment on Xanthomonas vesicatoria were 9, 5 and 5, respectively. Moreover, the “Agar Dilution Plate rating” value with Aspergillus niger [5] is on record as 0; in the experiment with Fusarium lycopersici, 5 (100% effectiveness of the test compound against the specified organism); in the experiment on Monilinia fructicola [6], 5 (100% effectiveness of the test compound against the specified organism); with Pythium de Baryanum it was 5 (100% effectiveness of the test compound against the specified organism); in the experiment on Rhizoctonia solani it was 0; in [7], 5 (100% effectiveness of the test compound against the specified organism). Further, the “Agar Dilution Plate rating” value is reported as 0 in the experiment on Pseudomonas solaracaerum, 5 (100% effectiveness of the test compound against the specified organism) in experiment [8] and 5 (100% effectiveness of the test compound against the specified organism) in the experiment on Verticillium albo-atrum. Also, the disease control index in the experiment with Phytophthora infestans (150 ppm) is given as 2; in the experiment on Phytophthora infestans (300 ppm), 2; with Phytophthora infestans (600 ppm), 4; with Phytophthora infestans (1200 ppm), 4; in the experiment on Piricularia oryzae (150 ppm), 2; with Piricularia oryzae (300 ppm) it was 4. For the same molecule, the disease control index in the experiment on Piricularia oryzae (600 ppm) was 4; in the experiment on Piricularia oryzae (1200 ppm), 4; with Venturia inaequalis it was 5 and 0.
